Results: ChEMBL document CHEMBL5137028, “Progress and Challenges in Targeting the SARS-CoV-2 Papain-like Protease” (J Med Chem, 2022)

Assays:
[1] = system: SARS-CoV-2; assay: Antiviral activity against SARS-CoV-2 infected in African green monkey Vero cells assessed as viral growth inhibition by cell culture based assay; type: functional, organism-based; conditions: Severe acute respiratory syndrome coronavirus 2, Vero
[2] = system: SARS-CoV-2; assay: Antiviral activity against SARS-CoV-2 infected in human HeLa cells expressing hACE2 assessed as inhibition of viral replication at MOI of 0.3 treated for 46 hrs by fluorescence microscopy; type: functional, organism-based; conditions: Severe acute respiratory syndrome coronavirus 2, HeLa
[3] = system: HeLa; assay: Cytotoxicity against human HeLa cells expressing hACE2 assessed as cell viability treated for 72 hrs by Cell Titer Glo assay; type: functional
[4] = Cytotoxicity against African green monkey Vero E6 cells assessed as cell viability treated for 24 to 48 hrs by prestoblue staining based assay; type: toxicity, Vero C1008; conditions: chlorocebus sabaeus, time 24-48 hrs
[5] = Cytotoxicity against African green monkey Vero E6 cells assessed as cell viability treated for 24 hrs by CCK8 assay; type: toxicity, cell-based, Vero C1008; conditions: chlorocebus sabaeus
[6] = system: SARS-CoV-2; assay: Antiviral activity against SARS-CoV-2 USA-WA1/2020 infected in African green monkey Vero E6 cells assessed as viral growth inhibition pretreated for 1 hr followed by infection at MOI of 0.1 measured after 48 hrs by Cell Titer Glo assay; type: functional, organism-based; conditions: Severe acute respiratory syndrome coronavirus 2, USA-WA1/2020, Vero C1008
[7] = system: SARS-CoV-2; assay: Antiviral activity against SARS-CoV-2 USA-WA1/2020 isolate infected in human Caco2 expressing hACE2 cells assessed as viral growth inhibition at MOI of 0.1 treated for 24 hrs by fluorescence microscopy; type: functional, organism-based; conditions: Severe acute respiratory syndrome coronavirus 2, USA-WA1/2020 isolate, Caco-2, 24 h
[8] = biological target: Replicase polyprotein 1ab (Severe acute respiratory syndrome coronavirus 2) (UniProt P0DTD1); assay: Inhibition of SARS-CoV-2 papain-like protease nsp3 (745 to 1061 residues) expressed in Escherichia coli
[9] = Cytotoxicity against African green monkey Vero cells assessed as cell viability; type: toxicity, cell-based; conditions: chlorocebus sabaeus
[10] = Selectivity index, ratio of CC50 for human A549 cells expressing ACE2 to EC50 for SARS-CoV-2 infected in human A549 cells expressing ACE2; type: toxicity, cell-based; conditions: read-out: Ratio CC50/EC50
[11] = system: Middle East respiratory syndrome-related coronavirus; assay: Antiviral activity against MERS-CoV assessed as viral growth inhibition; type: functional, organism-based
[12] = system: SARS-CoV-2; assay: Antiviral activity against SARS-CoV-2 infected in human A549 cells expressing ACE2 assessed as viral growth inhibition; type: functional, organism-based; conditions: Severe acute respiratory syndrome coronavirus 2, A549
[13] = Antiviral activity against HCoV-OC43 assessed as viral growth inhibition; type: functional, Human coronavirus OC43
[14] = system: A549; assay: Cytotoxicity against human A549 cells expressing ACE2 assessed as cell viability; type: functional
[15] = system: SARS-CoV-2; assay: Antiviral activity against SARS-CoV-2 infected in African green monkey Vero cells assessed as viral growth inhibition; type: functional, organism-based; conditions: Severe acute respiratory syndrome coronavirus 2, Vero
[16] = Selectivity index, ratio of CC50 for African green monkey Vero cells to EC50 for SARS-CoV-2 infected in African green monkey Vero cells; type: toxicity; conditions: read-out: Ratio CC50/EC50
[17] = Stability in human liver microsome assessed as half life; type: ADME; conditions: liver microsomes
[18] = Stability in human liver S9 fraction assessed as half life; type: ADME, subcellular
[19] = Cytotoxicity against African green monkey Vero E6 cells assessed as cell viability; type: toxicity, cell-based, Vero C1008; conditions: chlorocebus sabaeus
[20] = system: SARS-CoV-2; assay: Antiviral activity against SARS-CoV-2 infected in African green monkey Vero cells assessed as viral growth inhibition incubated for 1 hr by crystal violet staining based plaque reduction assay; type: functional, organism-based; conditions: Severe acute respiratory syndrome coronavirus 2, Vero
[21] = system: SARS-CoV-2; assay: Antiviral activity against SARS-CoV-2 infected in African green monkey Vero cells assessed as viral growth inhibition measured after 72 hrs by LDH assay; type: functional, organism-based; conditions: Severe acute respiratory syndrome coronavirus 2, Vero

Cc1cccc2c3c(ccc12)C1=C(C(=O)C3=O)[C@@H](C)CO1 [DIHYDROTANSHINONE I]
EC50 [1]: 8.15 µM

C[C@H](c1cccc2ccccc12)N1CCC(C(=O)NCc2cc(F)cc(NC(=O)N3CCN(C)CC3)c2)CC1
EC50 [2]: 0.18 µM
CC50 [3]: > 10 µM

O=C1c2c(O)cccc2[C@H]([C@@H]2O[C@H](CO)[C@@H](O)[C@H](O)[C@H]2O)c2cc(CO)cc(O)c21
CC50 [4]: > 100 µM

C[C@H]1COC2=C1C(=O)C(=O)c1c2ccc2c1CCCC2(C)C [CRYPTOTANSHINONE]
EC50 [1]: > 200 µM
CC50 at 24 h [5]: > 300 µM

C[C@@H](NC(=O)c1ccccc1CCC(=O)NNC(=O)CCl)c1cccc2ccccc12
EC50 [6]: 34 µM

C[C@H](c1cccc2ccccc12)N(C)Cc1c[nH]c2ccccc12
EC50 [7]: 12 µM

Cc1cc2nc3c(=O)[nH]c(=O)nc-3n(C)c2cc1C=O
EC50 [1]: 20 µM

O=C1c2c(O)cccc2[C@@H]([C@@H]2O[C@H](CO)[C@@H](O)[C@H](O)[C@H]2O)c2cc(CO)cc(O)c21
CC50 [4]: > 100 µM

COC(=O)/C=C/CNC(=O)CNC(=O)[C@H](CN)NC(=O)[C@H](CCc1ccc(O)cc1)NC(C)=O
INH [8]: 100 µM

Cc1coc2c1C(=O)C(=O)c1c-2ccc2c1CCCC2(C)C [TANSHINONE IIA]
EC50 [1]: > 200 µM

Nc1ccc2cc3ccc(N)cc3nc2c1 [PROFLAVINE]
CC50 [9]: 3.4 µM
selectivity ratio [10]: 36
IC50 [11]: 0.021 µM
EC50 [12]: 0.086 µM
IC50 [13]: 0.105 µM
CC50 [14]: 3.1 µM
EC50 [15]: 0.064 µM
selectivity ratio [16]: 53

COC(=O)/C=C/CNC(=O)CNC(=O)[C@H](CN)NC(=O)[C@H](CCc1nc2ccccc2s1)NC(C)=O
INH [8]: 100 µM

COC(=O)/C=C/C(=O)NNC(=O)CCc1ccccc1C(=O)N[C@H](C)c1cccc2ccccc12
half-life [17]: 50 min
half-life [18]: 60 min

Nc1nc2nc[nH]c2c(=S)[nH]1 [THIOGUANINE]
CC50 [19]: 35.5 µM

Cc1coc2c1C(=O)C(=O)c1c-2ccc2c(C)cccc12 [TANSHINONE I]
CC50 at 24 h [5]: > 200 µM

Cc1ccc(N)cc1C(=O)N[C@H](C)c1cccc2ccccc12
EC50 [1]: 32.6 µM
EC50 [20]: 3.18 µM

COc1cc(CNC(=O)C2CCN(C(C)c3cccc4ccccc34)CC2)ccn1 (stereo not drawn)
EC50 [21]: < 11 µM
